Experimental data published in patent US20230011131A1, “NOVEL COMPOUND FOR INHIBITING HISTONE ACETYLTRANSFERASE P300 AND ANTI-FIBROSIS COMPOSITION COMPRISING SAME” (REFURE LIFE SCIENCE INC., priority 2019, published 2023).

Molecular target: HAT p300 (histone acetyltransferase p300) (Homo sapiens, UniProt Q09472)
Assay: HAT activity kit (Biovision K332): inhibition of HAT activity of p300
Format: biochemical
Conditions: for IC50: 0.5, 1, 10 or 100 μM; for HAT activity inhibitory effect (HAT p300 activity inhibited): Synthesis Examples diluted to 100 μM
Description: Candidates 1 to 67, which are HAT inhibitors manufactured based on the PCAF structure, and HAT-24, HAT-26, and HAT-28 were diluted to 100 μM, and the degree of inhibition of HAT activity of p300 (inhibitory activity) was then determined using a kit for measuring HAT activity (Biovision, Cat No. K332, U.S.A) according to the method provided by the manufacturer. Here, the tissue was treated with C646 (HAT inhibitor) as a positive control.
Candidates 1 to 14 having a good HAT activity inhibitory effect in Section were diluted to concentrations of 0.5 μM, 1 μM, 10 μM, and 100 μM. Thereafter, the degree of inhibition of HAT activity was determined in the same manner as in Section.
Each of Synthesis Examples 1 to 24 was diluted to 100 μM, and the degree of inhibition of HAT p300 activity was determined in the same manner as in Section. Here, the tissues were treated with C646 and Candidate 12 (HAT-12) as the control instead of Synthesis Examples 1 to 24.

Sequence of HAT p300 (histone acetyltransferase p300) (Q09472 whole entry): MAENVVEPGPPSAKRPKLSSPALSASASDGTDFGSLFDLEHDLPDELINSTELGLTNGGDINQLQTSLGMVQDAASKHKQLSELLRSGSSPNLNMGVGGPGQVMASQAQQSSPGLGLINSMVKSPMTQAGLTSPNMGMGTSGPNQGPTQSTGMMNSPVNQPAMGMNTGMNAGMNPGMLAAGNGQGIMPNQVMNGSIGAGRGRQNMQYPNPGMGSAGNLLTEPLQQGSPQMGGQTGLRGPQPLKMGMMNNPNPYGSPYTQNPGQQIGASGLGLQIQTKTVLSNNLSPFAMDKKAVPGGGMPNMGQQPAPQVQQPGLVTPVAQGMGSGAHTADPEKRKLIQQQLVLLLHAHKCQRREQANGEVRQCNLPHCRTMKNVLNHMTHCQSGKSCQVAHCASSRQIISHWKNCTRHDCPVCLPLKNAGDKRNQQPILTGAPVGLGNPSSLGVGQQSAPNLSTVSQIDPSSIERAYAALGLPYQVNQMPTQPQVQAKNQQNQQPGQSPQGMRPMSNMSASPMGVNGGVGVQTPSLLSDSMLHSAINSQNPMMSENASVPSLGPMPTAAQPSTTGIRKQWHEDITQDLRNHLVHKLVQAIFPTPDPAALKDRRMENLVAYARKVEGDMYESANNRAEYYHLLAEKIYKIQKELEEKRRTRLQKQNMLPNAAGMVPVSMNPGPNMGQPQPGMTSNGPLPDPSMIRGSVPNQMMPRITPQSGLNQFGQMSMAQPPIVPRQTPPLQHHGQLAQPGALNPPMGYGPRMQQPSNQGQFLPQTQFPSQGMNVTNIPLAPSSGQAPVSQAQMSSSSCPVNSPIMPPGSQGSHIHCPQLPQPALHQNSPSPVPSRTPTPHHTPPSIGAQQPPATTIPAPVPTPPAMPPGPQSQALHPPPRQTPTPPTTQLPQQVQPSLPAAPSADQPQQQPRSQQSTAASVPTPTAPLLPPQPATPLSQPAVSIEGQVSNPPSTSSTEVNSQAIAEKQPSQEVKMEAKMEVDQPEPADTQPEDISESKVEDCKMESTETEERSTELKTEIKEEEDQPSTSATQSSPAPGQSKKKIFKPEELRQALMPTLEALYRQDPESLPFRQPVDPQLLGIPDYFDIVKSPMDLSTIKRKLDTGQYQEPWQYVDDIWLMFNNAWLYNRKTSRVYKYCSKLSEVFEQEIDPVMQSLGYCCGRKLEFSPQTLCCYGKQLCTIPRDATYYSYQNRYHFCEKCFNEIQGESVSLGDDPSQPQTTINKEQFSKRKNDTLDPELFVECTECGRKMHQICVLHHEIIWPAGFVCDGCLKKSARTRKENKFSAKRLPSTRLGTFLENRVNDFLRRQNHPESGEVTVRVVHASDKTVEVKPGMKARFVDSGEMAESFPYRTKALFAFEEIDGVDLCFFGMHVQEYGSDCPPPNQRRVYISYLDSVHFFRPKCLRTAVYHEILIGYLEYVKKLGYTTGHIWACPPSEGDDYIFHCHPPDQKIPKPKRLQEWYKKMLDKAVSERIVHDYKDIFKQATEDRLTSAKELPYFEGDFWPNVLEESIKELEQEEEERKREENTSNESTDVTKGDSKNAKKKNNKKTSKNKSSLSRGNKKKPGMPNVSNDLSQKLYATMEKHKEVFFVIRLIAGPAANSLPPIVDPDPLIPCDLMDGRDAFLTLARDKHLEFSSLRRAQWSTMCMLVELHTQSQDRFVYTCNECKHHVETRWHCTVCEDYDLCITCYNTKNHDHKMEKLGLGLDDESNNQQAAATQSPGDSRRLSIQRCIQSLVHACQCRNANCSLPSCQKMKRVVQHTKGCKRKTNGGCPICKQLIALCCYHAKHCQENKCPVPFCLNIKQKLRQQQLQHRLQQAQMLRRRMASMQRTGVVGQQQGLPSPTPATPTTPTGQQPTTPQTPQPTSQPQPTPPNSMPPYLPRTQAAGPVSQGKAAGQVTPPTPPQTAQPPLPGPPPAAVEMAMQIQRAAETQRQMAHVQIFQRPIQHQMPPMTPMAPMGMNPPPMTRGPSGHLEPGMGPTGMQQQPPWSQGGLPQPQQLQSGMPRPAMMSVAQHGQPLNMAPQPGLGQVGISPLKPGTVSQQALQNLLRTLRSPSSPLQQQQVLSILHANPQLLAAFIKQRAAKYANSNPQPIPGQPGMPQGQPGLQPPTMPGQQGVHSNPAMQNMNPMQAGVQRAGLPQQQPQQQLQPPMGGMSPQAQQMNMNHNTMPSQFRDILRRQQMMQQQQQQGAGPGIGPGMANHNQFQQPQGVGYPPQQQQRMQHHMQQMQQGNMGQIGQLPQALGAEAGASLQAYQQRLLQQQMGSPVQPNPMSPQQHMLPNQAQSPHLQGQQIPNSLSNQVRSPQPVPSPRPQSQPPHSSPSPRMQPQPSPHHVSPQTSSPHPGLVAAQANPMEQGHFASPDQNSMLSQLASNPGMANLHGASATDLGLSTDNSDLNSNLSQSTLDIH

Compound	IC50	HAT activity inhibitory effect (HAT p300 activity inhibited)
COc1cc(/C=C/C(=O)c2cccc(O)c2)cc(Br)c1OCc1cccc(C(N)=O)c1 [Synthesis Example 8]	1.06 µM	~100%
COc1cc(/C=C/C(=O)c2cccc(C(N)=O)c2)cc(I)c1OCc1cccc(C(N)=O)c1 [Synthesis Example 6, (E)-3-(3-(4-((3-carbamoylbenzyl)oxy)-3-iodo-5-methoxyphenyl)acryloyl) benzamide]	0.87 µM	~100%
